Experimental data taken from PubChem BioAssay (NCI).
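Protocol summary: plate cells (96-well), add compound at 5 concentrations, incubate 48 h, interpolate endpoints linearly. GI50 is the concentration that inhibits growth by half. The concentration for full growth arrest is given as TGI.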

The compounds below were run on SF-295 CNS (assay: growth of human tumour cells (NCI), 48 h).

First: COc1cc2c3c(n(CCCN(CCO)CCO)c(=O)c2cc1OC)-c1cc2c(cc1C3=O)OCO2
Second: COc1cc2c3c(n(CCCN(C)CCO)c(=O)c2cc1OC)-c1cc2c(cc1C3=O)OCO2
The GI50 of the first is lower: less than 10 nM for the first, 672 nM for the second.

First: CNCCn1c(=O)c2cc(OC)c(OC)cc2c2cnc3cc4c(cc3c21)OCO4
Second: C=CCn1c(SCC(=O)Nc2ccc(C(=O)/C=C/c3cc(OC)c(OC)c(OC)c3)cc2)nnc1-c1ccc(OC)cc1
The GI50 of the first is lower: less than 10 nM for the first, 900 nM for the second.

Going from Cn1cc(S(=O)(=O)N2CCC3=Cc4c(cnn4-c4ccc(F)cc4)C[C@]3(C(=O)c3cc(C(F)(F)F)ccn3)C2)cn1 to O=C(NC1CCCCC1)c1ccc(Nc2ncnc3c2cnn3-c2ccccc2)cc1, the GI50 falls from greater than 100000 nM to 2980 nM.

Going from COc1ccc2c(c1)C(C)Cc1c(ncnc1-n1cnc3ccccc31)N2C (configuration not stated) to O=C1/C(=C/N2N=C(c3ccc4ccccc4c3)CC2c2ccccc2O)SC(=S)N1c1cccnc1 (configuration not stated), the GI50 rises from 292 nM to 2630 nM (9-fold).

First: NCCCn1c2c(c3ccccc3c1=O)C(=O)c1ccccc1-2
Second: N#CC(C#N)=C1CCCOc2c1ccc1ccccc21
The GI50 of the first is lower: 70.9 nM for the first, greater than 100000 nM for the second.

Going from C=C1C(O)C2C(=C(C)C13CC3)C(=O)C(C)(C)C2OC (configuration not stated) to COc1cc(C(=O)O[C@H](C(N)=O)[C@]2(C)CO2)c2cccc(C)c2c1, the GI50 falls from greater than 100000 nM to less than 41.7 nM.

Compared with O=C(Nc1ccc(Cl)cc1)Nc1nccs1, NC(=O)CNc1ccc([As]=[As]c2ccc(NCC(N)=O)cc2)cc1 (configuration not stated) is 3.3-fold higher in GI50: 2730 nM for the first, 8910 nM for the second.

Work on Cc1sc2c(c1C)C(c1ccc(Cl)cc1)=N[C@@H](CC(=O)Nc1ccc(OCCOCCOCCOCCNc3cccc4c3C(=O)N(C3CCC(=O)NC3=O)C4=O)cc1)c1nnc(C)n1-2 (some centres not stated) yielded a GI50 of 234 nM.

Compared with COc1cc2c3c(n(CCCN(CCO)CCO)c(=O)c2cc1OC)-c1cc2c(cc1C3=O)OCO2, COc1cc2c3c(n(CCCN(C)CCO)c(=O)c2cc1OC)-c1cc2c(cc1C3=O)OCO2 is higher in TGI: 0.288 µM for the first, greater than 100 µM for the second.

Going from CNCCn1c(=O)c2cc(OC)c(OC)cc2c2cnc3cc4c(cc3c21)OCO4 to C=CCn1c(SCC(=O)Nc2ccc(C(=O)/C=C/c3cc(OC)c(OC)c(OC)c3)cc2)nnc1-c1ccc(OC)cc1, the TGI rises from less than 0.0155 µM to 4.88 µM.

Going from Cn1cc(S(=O)(=O)N2CCC3=Cc4c(cnn4-c4ccc(F)cc4)C[C@]3(C(=O)c3cc(C(F)(F)F)ccn3)C2)cn1 to O=C(NC1CCCCC1)c1ccc(Nc2ncnc3c2cnn3-c2ccccc2)cc1, the TGI falls from greater than 100 µM to 13.3 µM.

First: COc1ccc2c(c1)C(C)Cc1c(ncnc1-n1cnc3ccccc31)N2C (configuration not stated)
Second: Cc1c2c(C(N)=O)nccc2c(C)c2c1c1ccccc1n2Cc1ccccc1
The TGI of the first is 3.1-fold lower: 10.2 µM for the first, 31.2 µM for the second.

First: NCCCn1c2c(c3ccccc3c1=O)C(=O)c1ccccc1-2
Second: N#CC(C#N)=C1CCCOc2c1ccc1ccccc21
The TGI of the first is lower: 0.55 µM for the first, greater than 100 µM for the second.

Compared with COc1ccc(/C=C/c2cnccn2)cc1OC, COc1cc(C(=O)O[C@H](C(N)=O)[C@]2(C)CO2)c2cccc(C)c2c1 is lower in TGI: greater than 10 µM for the first, 1.84 µM for the second.

C=C1C(O)C2C(=C(C)C13CC3)C(=O)C(C)(C)C2OC (configuration not stated) and Cc1sc2c(c1C)C(c1ccc(Cl)cc1)=N[C@@H](CC(=O)Nc1ccc(OCCOCCOCCOCCNc3cccc4c3C(=O)N(C3CCC(=O)NC3=O)C4=O)cc1)c1nnc(C)n1-2 (some centres not stated) cannot be ordered by TGI: greater than 100 µM for the first, greater than 100 µM for the second.

O=C(Nc1ccc(Cl)cc1)Nc1nccs1 and NC(=O)CNc1ccc([As]=[As]c2ccc(NCC(N)=O)cc2)cc1 (configuration not stated) are within 1.5-fold of each other in TGI: 34.7 µM for the first, 36.9 µM for the second.

In the case of O=C1/C(=C/N2N=C(c3ccc4ccccc4c3)CC2c2ccccc2O)SC(=S)N1c1cccnc1 (configuration not stated), the TGI is reported as greater than 100 µM.

These compounds were tested on SK-OV-3 ovarian (assay: growth of human tumour cells (NCI), 48 h).

Compared with COc1ccc(-c2nn(-c3cccc(Cl)c3)cc2-c2nc(N)[nH]c(=O)c2C#N)cc1, C=CCn1c(SCC(=O)Nc2ccc(C(=O)/C=C/c3cc(OC)c(OC)c(OC)c3)cc2)nnc1-c1ccc(OC)cc1 is 5.4-fold lower in GI50: 6560 nM for the first, 1210 nM for the second.

Compared with COc1cc2c3c(n(CCCN(CCO)CCO)c(=O)c2cc1OC)-c1cc2c(cc1C3=O)OCO2, COc1cc2c3c(n(CCCN(C)CCO)c(=O)c2cc1OC)-c1cc2c(cc1C3=O)OCO2 is 5-fold higher in GI50: 2220 nM for the first, 11000 nM for the second.

First: CNCCn1c(=O)c2cc(OC)c(OC)cc2c2cnc3cc4c(cc3c21)OCO4
Second: COc1ccc2c(c1)C(C)Cc1c(ncnc1-n1cnc3ccccc31)N2C (configuration not stated)
The GI50 of the first is lower: less than 10.4 nM for the first, 429 nM for the second.

Compared with NCCCn1c2c(c3ccccc3c1=O)C(=O)c1ccccc1-2, c1ccc2c(c1)c1ccccc1c1ccccc21 is higher in GI50: 133 nM for the first, greater than 100000 nM for the second.

Going from O=C(NC1CCCCC1)c1ccc(Nc2ncnc3c2cnn3-c2ccccc2)cc1 to O=C1/C(=C/N2N=C(c3ccc4ccccc4c3)CC2c2ccccc2O)SC(=S)N1c1cccnc1 (configuration not stated), the GI50 rises from 2950 nM to 5950 nM (2-fold).

Compared with N#CC(C#N)=C1CCCOc2c1ccc1ccccc21, COc1cc(C(=O)O[C@H](C(N)=O)[C@]2(C)CO2)c2cccc(C)c2c1 is lower in GI50: greater than 100000 nM for the first, 1450 nM for the second.

Compared with C=C1C(O)C2C(=C(C)C13CC3)C(=O)C(C)(C)C2OC (configuration not stated), Cc1sc2c(c1C)C(c1ccc(Cl)cc1)=N[C@@H](CC(=O)Nc1ccc(OCCOCCOCCOCCNc3cccc4c3C(=O)N(C3CCC(=O)NC3=O)C4=O)cc1)c1nnc(C)n1-2 (some centres not stated) is lower in GI50: greater than 100000 nM for the first, 306 nM for the second.

First: O=C(Nc1ccc(Cl)cc1)Nc1nccs1
Second: NC(=O)CNc1ccc([As]=[As]c2ccc(NCC(N)=O)cc2)cc1 (configuration not stated)
The GI50 of the first is 4.5-fold lower: 5040 nM for the first, 22600 nM for the second.

Compared with COc1ccc(-c2nn(-c3cccc(Cl)c3)cc2-c2nc(N)[nH]c(=O)c2C#N)cc1, C=CCn1c(SCC(=O)Nc2ccc(C(=O)/C=C/c3cc(OC)c(OC)c(OC)c3)cc2)nnc1-c1ccc(OC)cc1 is 3.1-fold lower in TGI: 30.7 µM for the first, 9.96 µM for the second.

Going from COC(=O)C(=O)CC(=O)c1cccc(OC)c1 to COc1cc(C(=O)O[C@H](C(N)=O)[C@]2(C)CO2)c2cccc(C)c2c1, the TGI falls from greater than 100 µM to 7.99 µM.

First: COc1cc2c3c(n(CCCN(CCO)CCO)c(=O)c2cc1OC)-c1cc2c(cc1C3=O)OCO2
Second: COc1cc2c3c(n(CCCN(C)CCO)c(=O)c2cc1OC)-c1cc2c(cc1C3=O)OCO2
The TGI of the first is lower: 34.9 µM for the first, greater than 100 µM for the second.

Compared with CNCCn1c(=O)c2cc(OC)c(OC)cc2c2cnc3cc4c(cc3c21)OCO4, COc1ccc(/C=C/c2cnccn2)cc1OC is higher in TGI: 1.82 µM for the first, greater than 10 µM for the second.

Going from COc1ccc2c(c1)C(C)Cc1c(ncnc1-n1cnc3ccccc31)N2C (configuration not stated) to O=C(NC1CCCCC1)c1ccc(Nc2ncnc3c2cnn3-c2ccccc2)cc1, the TGI falls from 16 µM to 8.7 µM (1.8-fold).

First: NCCCn1c2c(c3ccccc3c1=O)C(=O)c1ccccc1-2
Second: c1ccc2c(c1)c1ccccc1c1ccccc21
The TGI of the first is lower: 1.94 µM for the first, greater than 100 µM for the second.

Compared with N#CC(C#N)=C1CCCOc2c1ccc1ccccc21, Cc1c2c(C(N)=O)nccc2c(C)c2c1c1ccccc1n2Cc1ccccc1 is lower in TGI: greater than 100 µM for the first, 47.6 µM for the second.

C=C1C(O)C2C(=C(C)C13CC3)C(=O)C(C)(C)C2OC (configuration not stated) and Cc1sc2c(c1C)C(c1ccc(Cl)cc1)=N[C@@H](CC(=O)Nc1ccc(OCCOCCOCCOCCNc3cccc4c3C(=O)N(C3CCC(=O)NC3=O)C4=O)cc1)c1nnc(C)n1-2 (some centres not stated) cannot be ordered by TGI: greater than 100 µM for the first, greater than 31.6 µM for the second.

Going from O=C(Nc1ccc(Cl)cc1)Nc1nccs1 to NC(=O)CNc1ccc([As]=[As]c2ccc(NCC(N)=O)cc2)cc1 (configuration not stated), the TGI falls from greater than 100 µM to 71.4 µM.

In the case of O=C1/C(=C/N2N=C(c3ccc4ccccc4c3)CC2c2ccccc2O)SC(=S)N1c1cccnc1 (configuration not stated), the TGI is reported as greater than 100 µM.

These compounds were tested on SN12C renal (assay: growth of human tumour cells (NCI), 48 h).

Going from COc1ccc(-c2nn(-c3cccc(Cl)c3)cc2-c2nc(N)[nH]c(=O)c2C#N)cc1 to COc1ccc2c(c1)C(C)Cc1c(ncnc1-n1cnc3ccccc31)N2C (configuration not stated), the GI50 falls from 6410 nM to 958 nM (6.7-fold).

Compared with COc1cc2c3c(n(CCCN(CCO)CCO)c(=O)c2cc1OC)-c1cc2c(cc1C3=O)OCO2, COc1cc2c3c(n(CCCN(C)CCO)c(=O)c2cc1OC)-c1cc2c(cc1C3=O)OCO2 is higher in GI50: less than 10 nM for the first, 2750 nM for the second.

Going from CNCCn1c(=O)c2cc(OC)c(OC)cc2c2cnc3cc4c(cc3c21)OCO4 to NCCCn1c2c(c3ccccc3c1=O)C(=O)c1ccccc1-2, the GI50 rises from less than 10 nM to 79.1 nM.

Going from Cn1cc(S(=O)(=O)N2CCC3=Cc4c(cnn4-c4ccc(F)cc4)C[C@]3(C(=O)c3cc(C(F)(F)F)ccn3)C2)cn1 to O=C(NC1CCCCC1)c1ccc(Nc2ncnc3c2cnn3-c2ccccc2)cc1, the GI50 falls from greater than 100000 nM to 8260 nM.

N#CC(C#N)=C1CCCOc2c1ccc1ccccc21 gave a GI50 greater than 100000 nM.

First: COc1ccc(-c2nn(-c3cccc(Cl)c3)cc2-c2nc(N)[nH]c(=O)c2C#N)cc1
Second: COc1ccc2c(c1)C(C)Cc1c(ncnc1-n1cnc3ccccc31)N2C (configuration not stated)
The TGI of the first is higher: greater than 100 µM for the first, 34 µM for the second.

COC(=O)C(=O)CC(=O)c1cccc(OC)c1 and COc1ccc(/C=C/c2cnccn2)cc1OC cannot be ordered by TGI: greater than 100 µM for the first, greater than 10 µM for the second.

Going from COc1cc2c3c(n(CCCN(CCO)CCO)c(=O)c2cc1OC)-c1cc2c(cc1C3=O)OCO2 to COc1cc2c3c(n(CCCN(C)CCO)c(=O)c2cc1OC)-c1cc2c(cc1C3=O)OCO2, the TGI rises from 0.285 µM to greater than 100 µM.

First: CNCCn1c(=O)c2cc(OC)c(OC)cc2c2cnc3cc4c(cc3c21)OCO4
Second: NCCCn1c2c(c3ccccc3c1=O)C(=O)c1ccccc1-2
The TGI of the first is 2.7-fold higher: 1.25 µM for the first, 0.465 µM for the second.

Cn1cc(S(=O)(=O)N2CCC3=Cc4c(cnn4-c4ccc(F)cc4)C[C@]3(C(=O)c3cc(C(F)(F)F)ccn3)C2)cn1 and O=C(NC1CCCCC1)c1ccc(Nc2ncnc3c2cnn3-c2ccccc2)cc1 cannot be ordered by TGI: greater than 100 µM for the first, greater than 100 µM for the second.

Compound N#CC(C#N)=C1CCCOc2c1ccc1ccccc21 has a TGI greater than 100 µM.
